From paper PMC8078842 (PLoS Neglected Tropical Diseases, 2021)
Where “and” joins values, the source holds several entries; their conditions need not be identical. Equal entries are not always repeated.

Test: In situ brain/choroid plexus perfusion (10 or 30 minutes) with capillary depletion
Settings: for RTISSUE/PLASMA% (mean±SEM) Caudate putamen / RTISSUE/PLASMA% (mean±SEM) Cerebellum / RTISSUE/PLASMA% (mean±SEM) Choroid plexus / RTISSUE/PLASMA% (mean±SEM) Corpus callosum / RTISSUE/PLASMA% (mean±SEM) Frontal cortex / RTISSUE/PLASMA% (mean±SEM) Hippocampus / RTISSUE/PLASMA% (mean±SEM) Homogenate / RTISSUE/PLASMA% (mean±SEM) Hypothalamus / RTISSUE/PLASMA% (mean±SEM) Occipital cortex / RTISSUE/PLASMA% (mean±SEM) Pellet / RTISSUE/PLASMA% (mean±SEM) Pineal gland / RTISSUE/PLASMA% (mean±SEM) Pituitary gland / RTISSUE/PLASMA% (mean±SEM) Pons / RTISSUE/PLASMA% (mean±SEM) Supernatant / RTISSUE/PLASMA% (mean±SEM) Thalamus / RTISSUE/PLASMA% (mean ± SEM) of [^3H]pentamidine: not corrected for vascular space; for RTISSUE/PLASMA% (mean ± SEM) of [^3H]pentamidine: 30 min perfusion
[1] = 15.7 nM, 10 minutes perfusion, corrected for vascular space
[2] = 15.7 nM, 10 minutes perfusion, corrected for vascular space, listed as [^3H]pentamidine
[3] = 10 minutes perfusion, listed as Control A [^3H]pentamidine
[4] = 10 minutes perfusion, listed as Control B [^3H]pentamidine

[^3H(G)]pentamidine
RCORR TISSUE% caudate putamen [1]: 4.02 (± 1.03) %
RCORR TISSUE% cerebellum [1]: 3.82 (± 0.64) %
RCORR TISSUE% choroid plexus [1]: 490.9 (± 103.1) %
RCORR TISSUE% corpus callosum [1]: 6.73 (± 2.65) %
RCORR TISSUE% frontal cortex [1]: 4.29 (± 0.93) %
RCORR TISSUE% hippocampus [1]: 4.37 (± 0.97) %
RCORR TISSUE% homogenate [1]: 4.61 (± 0.94) %
RCORR TISSUE% hypothalamus [1]: 5.56 (± 1.58) %
RCORR TISSUE% occipital cortex [1]: 4.03 (± 0.98) %
RCORR TISSUE% pellet [1]: 12.54 (± 1.74) %
RCORR TISSUE% pineal gland [1]: 284.7 (± 81.4) %
RCORR TISSUE% pons [1]: 7.16 (± 1.75) %
RCORR TISSUE% supernatant [1]: less than 2%
RCORR TISSUE% thalamus [1]: 4.76 (± 0.91) %
RCORR TISSUE% pituitary gland [2]: 182.75(± 29.6) % and 182.75(± 37.5) %
RCORR TISSUE% supernatant [2]: 1.99 (± 0.45) %
RTISSUE/PLASMA% (mean±SEM) Caudate putamen [3]: 4.08 (± 0.84) %
RTISSUE/PLASMA% (mean±SEM) Cerebellum [3]: 5.28 (± 0.56) %
RTISSUE/PLASMA% (mean±SEM) Choroid plexus [3]: 385.74 (± 24.35) %
RTISSUE/PLASMA% (mean±SEM) Corpus callosum [3]: 5.32 (± 1.47) %
RTISSUE/PLASMA% (mean±SEM) Frontal cortex [3]: 4.88 (± 1.18) %
RTISSUE/PLASMA% (mean±SEM) Hippocampus [3]: 3.48 (± 0.94) %
RTISSUE/PLASMA% (mean±SEM) Homogenate [3]: 4.03 (± 0.78) %
RTISSUE/PLASMA% (mean±SEM) Hypothalamus [3]: 5.96 (± 1.23) %
RTISSUE/PLASMA% (mean±SEM) Occipital cortex [3]: 4.56 (±0.87) %
RTISSUE/PLASMA% (mean±SEM) Pellet [3]: 4.11 (± 1.24) %
RTISSUE/PLASMA% (mean±SEM) Pineal gland [3]: 367.59 (± 39.97) %
RTISSUE/PLASMA% (mean±SEM) Pituitary gland [3]: 251.21 (± 66.80) %
RTISSUE/PLASMA% (mean±SEM) Pons [3]: 7.81 (± 0.90) %
RTISSUE/PLASMA% (mean±SEM) Supernatant [3]: 2.54 (± 0.39) %
RTISSUE/PLASMA% (mean±SEM) Thalamus [3]: 4.34 (± 0.83) %
RTISSUE/PLASMA% (mean±SEM) Caudate putamen [4]: 5.40 (± 1.00) %
RTISSUE/PLASMA% (mean±SEM) Cerebellum [4]: 6.54 (± 0.70) %
RTISSUE/PLASMA% (mean±SEM) Choroid plexus [4]: 535.95 (± 107.86) %
RTISSUE/PLASMA% (mean±SEM) Corpus callosum [4]: 9.17 (± 2.67) %
RTISSUE/PLASMA% (mean±SEM) Frontal cortex [4]: 6.23 (± 0.92) %
RTISSUE/PLASMA% (mean±SEM) Hippocampus [4]: 5.60 (± 1.43) %
RTISSUE/PLASMA% (mean±SEM) Homogenate [4]: 6.20 (± 0.97) %
RTISSUE/PLASMA% (mean±SEM) Hypothalamus [4]: 8.14 (± 1.75) %
RTISSUE/PLASMA% (mean±SEM) Occipital cortex [4]: 5.67 (± 0.99) %
RTISSUE/PLASMA% (mean±SEM) Pellet [4]: 13.19 (± 1.79) %
RTISSUE/PLASMA% (mean±SEM) Pineal gland [4]: 361.76 (± 79.03) %
RTISSUE/PLASMA% (mean±SEM) Pituitary gland [4]: 203.27(± 32.85) %
RTISSUE/PLASMA% (mean±SEM) Pons [4]: 10.72 (± 1.82) %
RTISSUE/PLASMA% (mean±SEM) Supernatant [4]: 3.00 (± 0.43) %
RTISSUE/PLASMA% (mean±SEM) Thalamus [4]: 5.95 (± 0.92) %
Accumulation corrected for vascular space, hippocampus (30 minutes of perfusion): 6.9%
Accumulation corrected for vascular space, hypothalamus (30 minutes of perfusion): 15%
Accumulation corrected for vascular space, pons (30 minutes of perfusion): 10.9%
RTISSUE/PLASMA% (mean ± SEM) of [^3H]pentamidine (Caudate putamen, 0.01% F68 + 15.7 nM pent): 6.90 (± 1.58) %
RTISSUE/PLASMA% (mean ± SEM) of [^3H]pentamidine (Caudate putamen, 0.1% F68 + 15.7 nM pent): 10.41 (± 1.18) %
RTISSUE/PLASMA% (mean ± SEM) of [^3H]pentamidine (Caudate putamen, 0.5% F68 + 15.7 nM pent): 13.07 (± 3.45) %
RTISSUE/PLASMA% (mean ± SEM) of [^3H]pentamidine (Caudate putamen, Control (15.7 nM pent)): 8.65 (± 0.28) %
RTISSUE/PLASMA% (mean ± SEM) of [^3H]pentamidine (Cerebellum, 0.01% F68 + 15.7 nM pent): 9.38 (± 2.47) %
